Test results: patent publication US20240315987A1, “ORAL CO[…] COMBINED WITH S[…] I[…] FOR USE IN THE TREATMENT, CONTROL OR PREVENTION OF DEPRESSIVE DISORDERS” (N[…] LTD., priority 2020, published 2024)
Read-outs that look alike come from different tables or passages of the source.

Experiments:
mice = details: cited from earlier work
[1] = target: T1, α7 nicotinic acetylcholine receptor (Rattus norvegicus, UniProt Q05941); details: cited from earlier work
T1 construct: expressed in transfected cells; host or cells: KXa7R1 cell line (HEK293)
T1 sequence (Q05941 23-502): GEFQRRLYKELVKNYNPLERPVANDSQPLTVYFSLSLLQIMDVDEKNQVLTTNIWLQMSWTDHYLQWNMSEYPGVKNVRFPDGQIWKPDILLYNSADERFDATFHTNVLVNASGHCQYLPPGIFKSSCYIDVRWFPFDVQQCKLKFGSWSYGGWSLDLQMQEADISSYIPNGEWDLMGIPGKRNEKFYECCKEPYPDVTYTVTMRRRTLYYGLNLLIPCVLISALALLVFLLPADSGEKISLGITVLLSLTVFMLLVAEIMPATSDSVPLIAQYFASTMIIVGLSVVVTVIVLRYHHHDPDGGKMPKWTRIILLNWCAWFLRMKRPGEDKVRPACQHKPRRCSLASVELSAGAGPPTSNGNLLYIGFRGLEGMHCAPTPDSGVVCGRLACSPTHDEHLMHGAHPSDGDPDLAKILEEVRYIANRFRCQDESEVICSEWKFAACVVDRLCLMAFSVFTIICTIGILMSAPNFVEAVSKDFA

[2] = cited from earlier work
[3] = test system: Major Depression Disorder (MDD) and Treatment-resistant depression (TRD); details: single IV administration, subanaesthetic dose 0.5 mg/kg; cited from earlier work
[4] = test system: depressive disorder patients; experiment: Example 6: subcut/IV ketamine with supplemental oral dose, then oral only; type: in vivo, human
Experimental: Patients (n=12 patients) were administered a ketamine-based treatment comprising a subcut/IV ketamine dose with a supplemental oral dose (as described herein).

depression = details: oral, 2019 systematic review; cited from earlier work
[5] = test system: Treatment Resistant Depression (TRD); experiment: Example 5 pilot study: combined subcutaneous/IV and oral ketamine in TRD patients; type: in vivo, human; details: for mean MADRS reduction: TRD patients
Experimental: Six patients diagnosed with Treatment Resistant Depression (TRD) received a combined ketamine treatment as outlined below. Their mean age was 53.1 (SD: 9.3). Five of the patients had previously attempted suicide and been admitted to a psychiatric unit. Three patients had received electroconvulsive therapy (ECT).
Five of the patients received oral ketamine of dose range 120-240 mg, (for example three to six capsules of 40 mg/day as described herein), once a week, four days after ketamine subcutaneous (0.5 mg-1.0 mg/kg) was administered once a week.
One patient received ketamine intravenously once a week and oral ketamine twice a week of dose 240 mg (for example, six capsules of 40 mg/day as described herein) each time.
The patients received on average 30.8 weeks (SD:7.7) ketamine subcutaneous-oral treatment and 10.6 weeks (SD: 6.7) ketamine IV-oral treatment.
This pilot study was conducted to explore the safety, tolerability, and potential clinical effectiveness of a treatment with repeated, low-dose oral ketamine capsules.

N[C@@]1(c2ccccc2Cl)CCC[C@@H](O)C1=O [(2R,6R)-HNK]
antidepressant-like effects (mice): ketamine-type antidepressant-like effects

NC1(c2ccccc2Cl)CCC=CC1=O (stereo not shown) [dehydronorketamine]
IC50 ([1]; KXa7R1 cell line (HEK293 cells transfected with rat nicotinic acetylcholine receptor genes)): 55 nM
potency as negative allosteric modulator ([1]; KXa7R1 cell line): subanaesthetic and nanomolar potencies

NC1(c2ccccc2Cl)CCCC(O)C1=O (stereo not shown) [hydroxynorketamine]
potency as negative allosteric modulator ([1]; KXa7R1 cell line): subanaesthetic and nanomolar potencies

NC1(c2ccccc2Cl)CCCCC1=O (stereo not shown) [norketamine]
plasma levels of metabolite relative to ketamine ([2]; following oral administration of ketamine): three times higher than ketamine
potency as negative allosteric modulator ([1]; KXa7R1 cell line): subanaesthetic and nanomolar potencies

CNC1(c2ccccc2Cl)CCCCC1=O (stereo not shown) [ketamine, Ketamine]
duration of antidepressant effect [3]: 4 to 7 days
time to antidepressant action [3]: ≤ 24 h
response to oral ketamine after stopping initial IV or subcutaneous ketamine treatment ([4]; especially oral twice a week at 160-240 mg): respond very well
remission levels after switch to oral only treatment ([4]; n=12 patients, oral only): maintained their remission levels at the same level as when administered the combination treatment
remission via MADRS scores ([4]; n=12 patients, subcut/IV ketamine dose with supplemental oral dose): ~50%
Bioavailability ([2]; intranasally): 8-50%
time to peak plasma concentrations ([2]; intravenously): within a minute
Bioavailability ([2]; oral route): 17-20%
time to peak plasma concentrations ([2]; orally): 30 min
Bioavailability ([2]; rectally): up to 30%
Bioavailability ([2]; sublingually): up to 30%
antidepressant effects (depression): significant antidepressant effects
tolerability (depression): good overall tolerability
response and tolerability of the treatment regimens ([5]; after 45 to 75 minutes after dosing): good response and tolerability in all patients
mean MADRS reduction ([5]; between first and last treatment, subcutaneous-oral ketamine treatment): −5.7 (SD: 11.0)
mean MADRS reduction ([5]; intravenous-oral ketamine treatment): −5.7 (SD: 10.0)
duration of significant improvement of cognition ([5]; one patient, ketamine IV once a week and oral ketamine twice a week 240 mg): 24 to 36 h
severity of adverse events ([5]; repeated, low-dose oral ketamine capsules): Most adverse events were moderate and self-limiting
ketamine cravings or urge to use beyond the prescribed period ([5]; six TRD patients): No participant reported ketamine cravings
onset of moderate discomforts or moderate increase of pre-existing discomforts, reports ([5]; six TRD patients): 32 times
positive effects (reduction of suicidal thoughts, improved mood, cognition, increased energy) ([5]; six TRD patients): Most of the participants reported positive effects
premature discontinuation of treatment ([5]; six TRD patients): none of the participants discontinued treatment prematurely
serious side effects ([5]; six TRD patients): No serious side effects occurred
tolerability of treatment with oral ketamine ([5]; six TRD patients): well-tolerated
activity at the same concentrations ([1]; KXa7R1 cell line, <1 μM): inactive
